This data set can be described thus: Human HepG2 cell viability assay in 384 well format. More on the design: dose 125 nL, time 70.5 hour; concentration not given beside the values. Particulars: HepG2 cells, read-out: Inhibition. In kind it is toxicity, cell-based.
For `CCOC(CC)C(=O)NCCC(=O)N1CCN(c2ccccn2)CC1` (stereo unspecified), the cytotoxicity at 70.5 h is -14.2%.

Consider `COCCOCC(=O)Nc1ccc(Br)cc1F`, for which the cytotoxicity at 70.5 h is -11%.

Consider `O=C(NCCc1nnc2n1CCC2)NCC1(c2cccc(F)c2)CC1`, for which the cytotoxicity at 70.5 h is -29.8%.

For the molecule `Cc1noc(C(C)C)c1C(=O)N1CCOCC1CC(=O)c1ccco1` (stereo unspecified), the cytotoxicity at 70.5 h was -5.66%.

On to `CCc1cnc(CN(C(C)=O)C2CCN(CCS(C)(=O)=O)C2)o1` (stereo unspecified), for which the cytotoxicity at 70.5 h was determined as 32.1%.

On to `CCN(CC)C(=O)c1ccc(-c2ccsc2)nc1C`, for which the cytotoxicity at 70.5 h is -6.78%.

For the molecule `O=C(CN1CCCC1Cn1cncn1)Nc1cccnc1` (stereo unspecified), the cytotoxicity at 70.5 h is -7.61%.

For `CCOc1ncccc1NC(=O)c1sccc1C`, the cytotoxicity at 70.5 h is -7.66%.

Regarding `Cc1cc(C(=O)N2CCCC2c2nnc3n2CCCCC3)no1` (stereo unspecified), the cytotoxicity at 70.5 h is -7.37%.

With `CNC(=O)COc1ccc(CNCc2ccc(F)cc2F)cc1`, the cytotoxicity at 70.5 h is -3.23%.

For the molecule `CC1CCN(CCNC(=O)c2cncnc2C(C)C)CC1`, the cytotoxicity at 70.5 h is -5.55%.

As for `Cc1ccc(CNC(=O)Nc2cc(C(F)(F)F)c[nH]c2=O)cn1`, the cytotoxicity at 70.5 h was -0.26%.

Turning to `Cc1csc(CNC(=O)Nc2cc(C(F)(F)F)c[nH]c2=O)n1`, the cytotoxicity at 70.5 h is -5.01%.

For the molecule `CCCN1CCC(NC(=O)c2ccc(F)cc2I)CC1`, the cytotoxicity at 70.5 h was -6.74%.

As to `Cc1nn(C)c(N2CCOCC2)c1CNC(C)c1ccco1` (stereo unspecified), the cytotoxicity at 70.5 h is 10.7%.

Take `O=C(Nc1cccc(CN2CCOC2=O)c1)N1CCOCC1`: the cytotoxicity at 70.5 h is -3.32%.

As to `Cc1nc(-c2ccsc2)ccc1C(=O)O`, the cytotoxicity at 70.5 h is -4.19%.

Regarding `Cc1cnn(CC(C)NCc2nc(-c3ccco3)no2)c1` (stereo unspecified), the cytotoxicity at 70.5 h came out at 2.25%.

As for `Cc1nc(C)n(CC2CCCCN2CC(=O)Nc2cccnc2)n1` (stereo unspecified), the cytotoxicity at 70.5 h is -0.493%.

On to `O=C1CCCCN1Cc1cccc(NC(=O)N2CCSCC2)c1`, for which the cytotoxicity at 70.5 h was -6.83%.

For the molecule `CC(C)(C(=O)NCC(N)=O)c1ccccc1F`, the cytotoxicity at 70.5 h is -5.2%.

As for `COc1ccc(CNCCc2cc(F)cc3c2OCOC3)cc1O`, the cytotoxicity at 70.5 h worked out at 2.79%.

As to `Cc1nc(C)n(CC2CN(CC(=O)Nc3nccs3)CCO2)n1` (stereo unspecified), the cytotoxicity at 70.5 h is -3.11%.

Turning to `CCOc1ncccc1NC(=O)c1cc(C)c(C)s1`, the cytotoxicity at 70.5 h was -7.38%.

Regarding `COC(=O)CS(=O)(=O)CCC(=O)N1CCCC1c1ccsc1` (stereo unspecified), the cytotoxicity at 70.5 h is -2.16%.

Take `c1ccc(C2CCCN2Cc2nnnn2C2CC2)cc1` (stereo unspecified): the cytotoxicity at 70.5 h is -2.74%.

For `CCc1ncncc1C(=O)NCCN1CCC(C)CC1`, the cytotoxicity at 70.5 h was -4.63%.

On to `Cc1noc(C)c1CN1CCC2(CC1)NC(=O)CC2c1ccncc1` (stereo unspecified), for which the cytotoxicity at 70.5 h is -9.41%.

Turning to `Cn1cc(-c2nnn3c2COC(CNCC2CCOCC2)C3)cn1` (stereo unspecified), the cytotoxicity at 70.5 h is -7.48%.

On to `O=C(c1ccncc1)N1CCN2C[C@H](Oc3cccnc3)C[C@H]2C1`, for which the cytotoxicity at 70.5 h came out at 2.63%.

`CC(C)NC(=O)c1ccc2nnc(C3CCN(S(C)(=O)=O)C3)n2c1` (stereo unspecified): the cytotoxicity at 70.5 h was -0.738%.

For `Cc1occc1C(=O)N1CCN2C[C@H](Oc3cccnc3)C[C@H]2C1`, the cytotoxicity at 70.5 h was 0.855%.

As for `Cn1nc(CN2CCCCC2)c2c1CN(C(=O)c1ccoc1)C2`, the cytotoxicity at 70.5 h amounted to 16.5%.

With `O=C1COC2(CCN(c3ccccn3)CC2)CN1Cc1ccccn1`, the cytotoxicity at 70.5 h came out at 17.6%.

Turning to `Cc1ccc(C(=O)N2C[C@H](OCC3CCOCC3)[C@H]3OCCC[C@H]32)o1`, the cytotoxicity at 70.5 h is 0.644%.

For `COC[C@H]1CC[C@H]2[C@H](CCN2S(=O)(=O)c2ccccc2)O1`, the cytotoxicity at 70.5 h was 5.05%.

Regarding `O=C(c1ccnnc1)N1C[C@H](OCC2CCOCC2)[C@H]2OCCC[C@H]21`, the cytotoxicity at 70.5 h was found to be 0.563%.

`CCOC[C@@H]1CC[C@H]2[C@H](CCN2S(=O)(=O)c2ccc(F)cc2)O1`: the cytotoxicity at 70.5 h was -6.92%.

In the case of `Cc1ccc(CN2CCCn3c(nc(Cn4ccnc4)cc3=O)C2)s1`, the cytotoxicity at 70.5 h is 8.11%.

Regarding `Cc1ccc(C(=O)N2CCO[C@H]3[C@H](OCC4CCOCC4)CC[C@@H]32)o1`, the cytotoxicity at 70.5 h stood at 11.2%.

On to `Cc1ccoc1C(=O)N1C[C@@H](OCC2CCOCC2)[C@H]2OCCC[C@H]21`, for which the cytotoxicity at 70.5 h was 8.35%.

Take `Cc1ccc(N2CCC3(CCN(C(=O)c4ccsc4)CC3)CC2)nn1`: the cytotoxicity at 70.5 h was -7.09%.

`Cc1ccc(C(=O)N2C[C@@H](OCc3cccnc3)[C@H]3OCCC[C@H]32)o1`: the cytotoxicity at 70.5 h is 3.45%.

For the molecule `COCC1CN(Cc2ccncc2)Cc2nn(C)cc21` (stereo unspecified), the cytotoxicity at 70.5 h stood at 30.7%.

In the case of `O=S(=O)(c1ccccc1)N1CCC[C@]2(C[C@@H](OCC3CC3)CO2)C1`, the cytotoxicity at 70.5 h was 9.43%.

On to `Cn1cc(CN2CCC3(CCCCN3S(C)(=O)=O)CC2)cn1`, for which the cytotoxicity at 70.5 h is -11.7%.

Consider `Cc1nn(C)c2nc(N3CCC(C(O)c4nccn4C)CC3)sc12` (stereo unspecified), for which the cytotoxicity at 70.5 h is -11.6%.

For `O=C(O)C(c1ccc2c(c1)OCO2)N1CCC(O)(c2cccnc2)CC1` (stereo unspecified), the cytotoxicity at 70.5 h was found to be 0.616%.

With `O=C(c1cccc(C2CCNC2)c1)N1CCC(c2ncc[nH]2)CC1` (stereo unspecified), the cytotoxicity at 70.5 h is -17%.

Regarding `Cc1cc(C)c(-n2cc(CCO)cn2)cc1C`, the cytotoxicity at 70.5 h is 22.1%.

In the case of `CCN1Cc2nc(OC)c(CNC(=O)C3CCCN(C)C3)cc2C1=O` (stereo unspecified), the cytotoxicity at 70.5 h was -5.45%.

As for `CSCCN1CCN(c2nc(N)ncc2C)CC1`, the cytotoxicity at 70.5 h is 21.4%.

Regarding `CN(C)Cc1ccccc1CN(C)c1ncnc2[nH]ccc12`, the cytotoxicity at 70.5 h is -9.22%.

Regarding `NC(=O)Cn1ccnc1C1CCCN(Cc2nc3ccccc3s2)C1` (stereo unspecified), the cytotoxicity at 70.5 h was -7.02%.

In the case of `CCC(=O)Nc1ccc(OCC(=O)N(C)C(C)c2ccon2)cc1` (stereo unspecified), the cytotoxicity at 70.5 h was -18.6%.

For the molecule `CCn1ccnc1C1CCN(C(=O)Nc2ccc(OC)cc2)CC1`, the cytotoxicity at 70.5 h worked out at 29.5%.

On to `Cc1nc(NCc2coc(-c3ccccc3)n2)cc(C2CCNCC2)n1`, for which the cytotoxicity at 70.5 h was -2.73%.

For `CCN1CC2(CCN(CCOc3ccc(F)cc3)CC2)CC1=O`, the cytotoxicity at 70.5 h was 12.8%.

As to `NC(=O)COc1ccc(CNCc2ccc(F)c(F)c2)cc1`, the cytotoxicity at 70.5 h was found to be 0.155%.

As for `Fc1cccnc1N1CCOCC2(CCCN(c3nncs3)C2)C1` (stereo unspecified), the cytotoxicity at 70.5 h was -9.83%.

Consider `COCC1CN(Cc2ccoc2)Cc2nnn(C)c21` (stereo unspecified), for which the cytotoxicity at 70.5 h is -13.7%.

With `O=C(NC[C@]12COC[C@H]1CN(Cc1cccs1)C2)c1ccsc1`, the cytotoxicity at 70.5 h was -9.66%.

On to `CN(C)C[C@]12COC[C@H]1CN(C(=O)CCc1ccccc1)C2`, for which the cytotoxicity at 70.5 h was -11.8%.

Regarding `Cc1ccc(C(=O)N2CCC3(CC2)CCN(Cc2ccccn2)C3=O)o1`, the cytotoxicity at 70.5 h was determined as 26.4%.

Turning to `NC(=O)N1CCC2(CCN(Cc3ccccn3)C2=O)C1` (stereo unspecified), the cytotoxicity at 70.5 h was -0.213%.

As to `Cc1ccc(C(=O)N2CCc3c(CN4CCCC4)nn(C)c3C2)cc1C`, the cytotoxicity at 70.5 h is -2.24%.

`c1coc(CN2CCCn3c(nnc3Cn3cccn3)C2)c1`: the cytotoxicity at 70.5 h turned out to be 3.11%.

As to `Cc1ccc(C(=O)N2Cc3c(CN4CCCCC4)nn(C)c3C2)cc1F`, the cytotoxicity at 70.5 h was determined as 36.2%.

Consider `Cc1ccc(C(=O)N2C[C@@H](OCc3cccnc3)[C@H]3OCCC[C@@H]32)o1`, for which the cytotoxicity at 70.5 h came out at 10.6%.

As for `c1cnc(N2CCC3(CCN(CC4CCOC4)CC3)C2)nc1` (stereo unspecified), the cytotoxicity at 70.5 h is -1.96%.

For the molecule `O=C(CC1CC2(CCN(CC3CC3)CC2)c2ccccc21)NC1CCC1` (stereo unspecified), the cytotoxicity at 70.5 h is -2.68%.

Consider `O=C(C1=CCCC1)N1CCC2(CC1)CC(Oc1cccnc1)CO2` (stereo unspecified), for which the cytotoxicity at 70.5 h is -0.424%.

With `Cc1oncc1C(=O)NCc1cc(=O)n2c(n1)CN(CC(C)C)CCC2`, the cytotoxicity at 70.5 h is 22.7%.

With `O=C(c1cnccn1)N1CCCC2(CCN(c3ccccn3)C2)C1` (stereo unspecified), the cytotoxicity at 70.5 h came to 19.3%.

Turning to `O=C(c1cc[nH]n1)N1CCC2(CC1)CC(Oc1cccnc1)CO2` (stereo unspecified), the cytotoxicity at 70.5 h is 8.68%.

On to `CCN1CCCn2c(nc(CNC(=O)c3cnoc3C)cc2=O)C1`, for which the cytotoxicity at 70.5 h was 5.12%.

In the case of `Cc1ccc(N2CCC3(CCN(C(=O)N(C)C)CC3)CC2)nn1`, the cytotoxicity at 70.5 h was 11.4%.

As to `Cc1noc(C)c1CN1CCO[C@H]2CN(C(=O)N3CCCC3)C[C@H]21`, the cytotoxicity at 70.5 h is 0.539%.

In the case of `c1cnc(N2CCC3(CCCN(CC4CC4)C3)CC2)nc1`, the cytotoxicity at 70.5 h was -6.6%.

For `CCS(=O)(=O)N1CC[C@H]2CO[C@H](CN(C)C)[C@H]2C1`, the cytotoxicity at 70.5 h was determined as 9.44%.

For `O=C(NCc1ccco1)[C@@H]1CCO[C@@H]2CCN(c3ncccn3)C[C@@H]21`, the cytotoxicity at 70.5 h turned out to be 9.24%.

As for `Cn1cc(CN2CCCC3(CCCCN3S(C)(=O)=O)C2)cn1` (stereo unspecified), the cytotoxicity at 70.5 h is -9.02%.

On to `O=C(NCc1ccco1)[C@@H]1CCO[C@@H]2CCN(c3ncccn3)C[C@H]21`, for which the cytotoxicity at 70.5 h was -3.72%.

For `CN1CC(=O)N(c2ccsc2)CC12CCN(C(=O)Nc1ccccc1)C2` (stereo unspecified), the cytotoxicity at 70.5 h was -4.43%.

Regarding `O=C(Nc1cccnc1)[C@H]1C[C@H]2OCC[C@H]2N(Cc2ccc(F)cc2)C1`, the cytotoxicity at 70.5 h is -10%.

For `Cc1cccc(CN2C[C@@H]3COC[C@]3(CNC(=O)c3ccccc3)C2)n1`, the cytotoxicity at 70.5 h is -12.2%.

Regarding `Cc1cccc(CN2C[C@@H]3COC[C@]3(CNC(=O)c3cccn3C)C2)n1`, the cytotoxicity at 70.5 h stood at 19.6%.

As for `Cn1cc(CN2CCC3(CC2)NC(=O)CC3c2ccncc2)cn1` (stereo unspecified), the cytotoxicity at 70.5 h was 12.2%.

For `Cc1cncc(C(=O)N2C[C@H]3CCC[C@@]3(COc3ccccn3)C2)c1`, the cytotoxicity at 70.5 h was 7.93%.

As to `COc1cc(N2CCO[C@H]3[C@@H](Oc4cccnc4)CC[C@@H]32)ncn1`, the cytotoxicity at 70.5 h was 26.1%.

For `c1cnn(Cc2nnc3n2CCCN(Cc2ccsc2)C3)c1`, the cytotoxicity at 70.5 h came out at 4.58%.

As for `Cc1ccc(O[C@@H]2C[C@H]3CN(C(=O)c4cccnc4)CCN3C2)cc1`, the cytotoxicity at 70.5 h worked out at 9.15%.

On to `O=C(CCc1cccnc1)N1CCC2(CCN(CC3CCCC3)C2)C1` (stereo unspecified), for which the cytotoxicity at 70.5 h is 23.3%.

For the molecule `Cc1cc(CN2CCO[C@H]3[C@H](OCc4csc(C)n4)CC[C@@H]32)no1`, the cytotoxicity at 70.5 h worked out at 2.95%.

Take `CN1CC(=O)N(c2cccc(F)c2)CC12CCN(CC1CC1)C2` (stereo unspecified): the cytotoxicity at 70.5 h was -3.68%.

Consider `CN1CC(=O)N(c2ccccc2)CC12CCN(CCO)C2` (stereo unspecified), for which the cytotoxicity at 70.5 h turned out to be 6.4%.

For the origin of these results see ChEMBL document CHEMBL3507680, “University of Dundee, Gates Library screen for HepG2 cell viability”.
